The target in one test is T1, Rat TAAR9 (Rattus norvegicus, UniProt Q923Y6).
T1 construct: expressed in transfected cells; host or cells: Hana3A (HEK293-derived)
T1 sequence (Q923Y6 1-338): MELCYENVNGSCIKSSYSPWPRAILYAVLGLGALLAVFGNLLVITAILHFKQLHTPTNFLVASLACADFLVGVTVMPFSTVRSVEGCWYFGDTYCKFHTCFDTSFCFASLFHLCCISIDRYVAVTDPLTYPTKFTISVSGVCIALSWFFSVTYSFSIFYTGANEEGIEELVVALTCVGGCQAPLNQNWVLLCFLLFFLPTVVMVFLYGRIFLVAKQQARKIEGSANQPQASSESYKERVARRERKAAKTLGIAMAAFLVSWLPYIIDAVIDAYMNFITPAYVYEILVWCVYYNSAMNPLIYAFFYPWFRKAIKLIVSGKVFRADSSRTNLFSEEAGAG
Nature of the test: CRE-luciferase reporter assay in Hana3A. Conditions: rat TAAR9, ligand 1 mM, Fig. 1B. The format is cell-based. The method, then: We examined the response of TAAR9s from rat, human, hamster, and rabbit to the stimulation of 1 mM amines using a well-established cAMP response element (CRE)-driven luciferase reporter assay based on Golf-mediated cAMP signal transduction ([5], [24]). In addition to the four mTAAR9 ligands, we included putrescine, which is also a polyamine and precursor of spermine/spermidine biosynthesis.
Mammalian TAAR9 plasmids were transfected into Hana3A cells along with a cAMP-dependent luciferase reporter plasmid (CRE-Luc). Transfected cells were incubated with tested ligands, and luciferase activity was quantified with a […] substrate as a reporter for Golf-mediated TAAR activation. Luciferase activity was indicated by the luminescence value and normalized as a fold-increase over the response to the vehicle stimuli (mean ± S.D., n = 3). […] B, Hana3A cells expressing mouse, rat, human, cat, hamster, and rabbit TAAR9 were incubated with either vehicle or tested ligands (1 mM) and assayed for reporter activity. C, concentration-dependent luciferase activity in Hana3A cells expressing mouse, rat, and cat TAAR9 receptors stimulated with cadaverine, spermidine, and spermine.
The firefly luciferase and renilla luciferase activity was measured with a BioTek microplate reader following manufacturer’s instructions.

The target of a further test is T2, sTAAR365 E7.36D (Petromyzon marinus, UniProt A0A678XMK4, E292D).
T2 sequence (A0A678XMK4 1-365 E292D): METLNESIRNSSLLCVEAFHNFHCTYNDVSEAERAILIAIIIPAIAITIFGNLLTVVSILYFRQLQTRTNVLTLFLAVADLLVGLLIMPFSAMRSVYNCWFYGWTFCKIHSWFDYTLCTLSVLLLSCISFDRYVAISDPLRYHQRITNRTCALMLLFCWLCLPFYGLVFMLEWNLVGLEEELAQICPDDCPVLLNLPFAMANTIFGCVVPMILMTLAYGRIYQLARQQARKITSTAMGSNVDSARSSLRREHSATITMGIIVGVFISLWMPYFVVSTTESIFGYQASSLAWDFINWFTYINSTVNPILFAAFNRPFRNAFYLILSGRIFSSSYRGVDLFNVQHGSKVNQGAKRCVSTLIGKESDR
The test is described as follows: cell-based.

The next test concerns the target T3, WT sTAAR365 (Petromyzon marinus, UniProt A0A678XMK4).
T3 sequence (A0A678XMK4 1-365): T2 sequence (A0A678XMK4 1-365 E292D) with D292E
The test is described as follows: cAMP TR-FRET assay, wild-type sTAAR365 in HEK293T. The format is cell-based, sea lamprey. Conditions: for activation of sTAAR365 (cAMP accumulation): ligand 1 mM, HEK293T, Fig. 2A. On the procedure:
HEK293T cells were transfected with sea lamprey sTAAR365 for 24 h and assayed for Golf-mediated cAMP production with a TR-FRET assay at 30 min after ligand addition. Receptor activity was normalized to the cAMP level in buffer-treated cells (mean ± S.D., n = 3). A, HEK293T cells expressing sTAAR365 or mock plasmid were incubated with either vehicle or tested ligands (1 mM). […] B, concentration-dependent cAMP production of HEK293T cells expressing sTAAR365 stimulated with cadaverine, putrescine, and spermine.
(TR-FRET usually uses a lanthanide donor and a delayed reading to cut background.)

In a further test the target is T4, sTAAR365 E7.36A (Petromyzon marinus, UniProt A0A678XMK4, E292A).
T4 sequence (A0A678XMK4 1-365 E292A): T2 sequence (A0A678XMK4 1-365 E292D) with D292A
Nature of the test: cell-based.

The target of the next test is T5, sTAAR365 Y6.51F (Petromyzon marinus, UniProt A0A678XMK4, Y272F).
T5 sequence (A0A678XMK4 1-365 Y272F): T2 sequence (A0A678XMK4 1-365 E292D) with Y272F, D292E
Nature of the test: cell-based.

Here are results for three compounds from paper PMC8546428, “Convergent olfactory trace amine-associated receptors detect biogenic polyamines with distinct motifs via a conserved binding site” (The Journal of Biological Chemistry, 2021).

Where a chain is given by its changes, count along the chain named.

In the case of `NCCCNCCCCNCCCN` [spermine], the “reporter activity (activation of TAAR9)” value on Rat TAAR9 is “maximum responses”. In addition, the EC50 at sTAAR365 E7.36D was greater than 500 µM; at WT sTAAR365, 28 µM; on sTAAR365 E7.36A it was greater than 500 µM; on sTAAR365 Y6.51F, 114 ± 20 µM. Moreover, on WT sTAAR365 (WT sTAAR365, cAMP production), the “maximal response (Emax) relative to cadaverine/putrescine” value is recorded as “one-third”. On WT sTAAR365, the “activation of sTAAR365 (cAMP accumulation)” value (“activation of sTAAR365” for short) is “activated”.

In the case of `NCCCCCN` [cadaverine], at Rat TAAR9, the “reporter activity (activation of TAAR9)” value is listed as “maximum responses”. For the same compound, the 50% effective concentration (EC50) came to 0.007 ± 0.002 µM on sTAAR365 E7.36D, 0.004 µM on WT sTAAR365, 0.05 ± 0.02 µM at sTAAR365 E7.36A and 1.7 ± 0.9 µM on sTAAR365 Y6.51F. On WT sTAAR365 (WT sTAAR365), the “difference in potency, cadaverine vs putrescine” value is 1000 fold. On WT sTAAR365 (WT sTAAR365, cAMP production), this compound had a response threshold of roughly 100 pM. Also, the “activation of sTAAR365” value at WT sTAAR365 was “activated”.

On to `NCCCCN` [putrescine], for which the “reporter activity (activation of TAAR9)” value on Rat TAAR9 is reported as “not activated”. In addition, the EC50 at sTAAR365 E7.36D was 72 ± 14 µM; at WT sTAAR365, 56 µM; at sTAAR365 E7.36A, 420 ± 87 µM; on sTAAR365 Y6.51F, greater than 500 µM. Moreover, the “activation of sTAAR365” value on WT sTAAR365 is “activated”.

By EC50 is commonly meant the concentration that produces a half-maximal response. Low readings indicate an effect from little substance, high ones a need for much substance.
